Test results reported in patent US9120793B2, “Triazolo-pyridine compound” (Eli Lilly and Company, priority 2013, dated 2015).

Key:
[1] = biological target: T1, human GPR-40 (Homo sapiens, UniProt O14842); experiment: Calcium Flux Primary Assay; format: cell-based
T1 construct: expressed in transfected cells; host or cells: HEK293
Procedure: HEK293 cells over expressing the human GPR-40 cDNA maintained in Dulbecco's modified Eagle's medium with F12 medium in 3:1 ratio supplemented with 10% FBS and 800 μg/ml geneticin at 37° C. and 5% CO2 are employed for the study. Agonist assays are performed using a Calcium 4 Dye assay kit (Molecular Devices) in the presence or absence of 0.1% fatty acid free BSA in the assay buffer (1×HBSS (Hank's Balanced Salt Solution) & 20 mM HEPES (4-(2-hydroxyethyl)-1-piperazineethanesulfonic acid). Receptor activation is measured as an increase in intracellular calcium using the Fluorometric Imaging Plate Reader (FLIPR). Maximum change in fluorescence over the base line is used to determine the agonist response. The EC50 value of the compound is calculated using Excel Fit software (version 4; IDBS) by plotting concentration vs relative fluorescence units (RFUs). […] (Mean±SEM; SEM=standard error of the mean.)

[2] = biological target: T2, PPARα (Homo sapiens, UniProt Q07869); experiment: PPARα reporter (CTF)/functional assay in CV1 cells; format: cell-based; conditions: examined up to 10 μM; efficacy <20% considered negative
T2 construct: expressed in transfected cells; host or cells: CV1 (African green monkey kidney)
T2 sequence (Q07869 239-466 limits assumed): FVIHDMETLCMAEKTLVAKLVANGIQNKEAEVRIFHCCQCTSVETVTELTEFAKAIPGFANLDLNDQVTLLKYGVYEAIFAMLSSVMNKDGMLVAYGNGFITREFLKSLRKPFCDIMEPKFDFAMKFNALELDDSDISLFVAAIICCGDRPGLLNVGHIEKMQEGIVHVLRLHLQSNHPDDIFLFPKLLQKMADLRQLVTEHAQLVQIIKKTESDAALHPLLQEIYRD
Excerpt: Because GPR-40 is known to be activated by ligands to PPARγ, exemplified compounds are examined in PPARα, PPARδ, and PPARγ reporter assays to determine the selectivity of an exemplified compound. CV1 cells, which are derived from the renal tissue of an African green monkey, are transfected with various receptor and reporter plasmids using Fugene. For the PPARα and PPARδ assays, a reporter plasmid containing five tandem copies of the yeast transcription protein Gal4 response element, cloned upstream of a firefly luciferase gene driven by the major late promoter of adenovirus, is transfected together with a Simian Virus 40 (SV40) driven plasmid constitutively expressing a hybrid protein containing the Gal4 DNA binding domain (DBD), and either the PPARα or PPARδ ligand binding domain. For the PPARγ assay, plasmids encoding PPARγ and RXRα, both driven by a cytomegalovirus (CMV) promoter are transfected together with a plasmid containing luciferase reporter cDNA driven by the TK promoter and a receptor response element (2×PPRE). […] After 24 hours incubation with compound, cells are lysed and luciferase activity is determined as a measure of receptor activation by luminescence. […] The maximum percent stimulation is determined versus maximum stimulation obtained with 10 μM of an appropriate PPAR agonist reference compound. […]

[3] = test system: Zucker fa/fa rats; experiment: Chronic oral glucose tolerance test (OGTT); format: in vivo, rat
Procedure: OGTTs are performed in Zucker fa/fa rats, a rodent model of insulin resistance, after 1 and 21 days of orally administered exemplified compound at 1.0, 3.0 and 10 mg/kg. A standard GPR-40 agonist at 1 mg/kg serves as the positive control. OGTTs are performed one hour post compound administration with blood samples taken for determination of glucose and insulin levels at 10, 20, 40, 60, and 120 minutes post glucose administration. […] Weight and food consumption are not altered due to any treatment during the study.

T1 sequence (O14842 whole entry): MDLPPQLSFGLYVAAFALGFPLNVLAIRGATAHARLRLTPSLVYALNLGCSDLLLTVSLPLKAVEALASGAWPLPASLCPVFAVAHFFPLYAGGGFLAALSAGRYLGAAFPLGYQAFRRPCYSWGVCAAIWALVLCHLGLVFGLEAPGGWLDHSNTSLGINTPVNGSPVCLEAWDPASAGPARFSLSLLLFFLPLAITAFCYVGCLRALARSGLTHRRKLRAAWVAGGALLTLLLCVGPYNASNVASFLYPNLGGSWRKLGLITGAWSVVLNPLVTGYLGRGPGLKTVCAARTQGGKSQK

EC50 ([1]; HEK293 cells over expressing human GPR-40, intracellular calcium, FLIPR): 119 nM
efficacy ([1]; maximal response compared to natural ligand linoleic acid): 76%
functional activation of PPARα [2]: No functional activation
SMILES: CC#C[C@@H](CC(=O)O)c1ccc(OCc2ccc3nc(-c4c(C)cccc4C)nn3c2)cc1 [Example 1, (3S)-3-[4-[[2-(2,6-Dimethylphenyl)-[1,2,4]triazolo[1,5-a]pyridin-6-yl]methoxy]phenyl]hex-4-ynoic acid]
Weight and food consumption ([3]; 21 days oral administration, any treatment): not altered
ED90 for glucose lowering ([3]; day 1, oral): 4.1 mg/kg
ED90 for glucose lowering ([3]; day 21, oral): 5.0 mg/kg
AUCs for glucose lowering ([3]; days 1 and 21, oral 1, 3 and 10 mg/kg, p<0.05): statistically significant
Insulin AUCs during the OGTTs ([3]; oral 1, 3 and 10 mg/kg, values not statistically significant): dose dependent elevation
